In US20180071317A1, “USE OF AGENTS THAT ALTER THE PERITUMORAL ENVIRONMENT FOR THE TREATMENT OF CANCER” (SERVICIO ANDALUZ DE SALUD, priority 2011, published 2018):

How the values were obtained:
[1] = tested on: leukocyte cells (mono and polymorphonuclear) in co-culture with cells isolated from primary human tumors; experiment: Marker expression (IHC) in leukocytes co-cultured with primary human tumor cells (colon, pancreatic, lung carcinoma, glioma, melanoma); type: cell-based; conditions: SP 1 μM + antagonist 1 μM;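 note: tumor cells and leukocytes came from the same patients, co-culture contents were paraffin-embedded for immunohistochemistry with antibodies to TGF-β2 or NF-kB, leukocytes cultured alone served as control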
Procedure: To check that the interaction of the human primary tumor cells with cells of the immune/inflammatory (mono and polymorphonuclear leukocytes) cells, stimulates the secretion of substances of importance for survival and tumor progression, cultures were carried out using sets of immune cells/inflammatory (mono and polymorphonuclear leukocytes) with tumor cells obtained directly from primary human tumors of the same patients.
The same method described in Example 7 and 9 was used to obtain tumor cells from primary human tumors. Similarly cultured immune cells/inflammatory (mono and polymorphonuclear leukocytes) were used as control and secondly, cultured tumor cells isolated from patients in the presence of immune cells/inflammatory (mono and polymorphonuclear leukocytes).
Then, paraffin blocks were prepared with the contents of each of the groups mentioned previously for expression studies using immunohistochemistry. On this occasion, in order to identify the secretion of substances with importance for the survival and progression of tumor the following markers were analyzed: TGF-β2 (SAB4502956) and NF-kB (SAB4501992) using specific antibodies against them. All antibodies used were rabbit polyclonal antibodies obtained from Sigma Aldrich and were used at a concentration of 1/1000. Immunohistochemical techniques were performed and evaluated as described in previous examples.

[2] = tested on: fibroblasts (PHF) co-cultured with tumor cells of human breast carcinoma (MCF-7); experiment: Marker expression (IHC) in PHF co-cultured with MCF-7 tumor cells; type: cell-based; conditions: co-culture with MCF-7; SP 1 μM + antagonist 1 μM; 48 h;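 note: value is the percentage of fibroblasts positive for each marker, with fibroblasts cultured alone as reference, grown in fresh plasma from a healthy donor, six replicates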
Procedure: (§1) All cultures were maintained 48 hours, following which the same cells were included in paraffin blocks for subsequent analysis of the expression of different markers by immunohistochemistry (see Example 1). […] All experiments were carried out sixfold. Analyzed markers in fibroblast cells (stromal cells) were: TGF-α, TGF-β1, TGF-β2, TGF-β3, SPARC, MMP-3, MMP-7, MMP-9, MMP-11, MMP-13 and MMP-14.

[3] = tested on: human primary fibroblasts (PHF); experiment: Marker expression (immunohistochemistry) in human primary fibroblasts with SP alone or with NK1 antagonists; type: cell-based; conditions: SP 1 μM + antagonist 1 μM; 48 h;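 note: primary human dermal fibroblasts, immunostained with rabbit polyclonal antibodies against each marker, value is percentage of stained cells among all cells counted in 20 fields at 400× per section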
Procedure: These PHF were obtained and purified from samples obtained from the dermis of the skin of healthy volunteers as described in De Bari et al (De Bari et al. 2001). Briefly, small pieces of skin dermis were digested in a solution of hyaluronidase (Sigma-Aldrich, USA) at a concentration of 1 mg/ml for 15 minutes at 37° C. and then treated with 6 mg/ml collagenase type IV (Invitrogen) for 2 hours at 37° C. Then, the cells were washed, resuspended in DMEM culture medium with high glucose (Dulbecco's Modified Eagle's Medium, Invitrogen) supplemented with 1% antibiotic-antimycotic (Invitrogen) and 1% pyruvate Sodium (Invitrogen), and seeded in culture dishes at a concentration of 10,000 cells per square centimeter. When the cells reached confluence, adherent cells were detached using 0.5% sterile trypsin (Invitrogen) and used between passages 3 and 9. For tests shown below, the PHF were plated in 24-well plates at a concentration of 25,000 cells per well.
After 48 hours of culture, cells were harvested and paraffin cell-blocks for immunohistochemical analysis were constructed, as previously explained in Example 1.
In immunohistochemical assays the expression of the following markers were studied: TGFα (SAB4502953), TGF1 (SAB4502954), TGFβ2 (SAB4502956), TGFβ3 (SAB4502957), SPARC (HPA002989), MMP-3 (HPA007875) MMP-7 (SAB4501894), MMP-9 (SAB4501896), MMP-11 (SAB4501898), MMP-13 (SAB4501900) and MMP-14 (SAB4501901) using specific antibodies against them. All antibodies used were rabbit polyclonal antibodies obtained from Sigma-Aldrich and were used at a concentration of 1/1000. All experiments were carried out sixfold.
On each of the six sections cell counts were performed in 20 high power fields (400×) through an Olympus microscope (model CX31) to assess the immunostaining. On each of the fields total cell number and number of cells displaying immunostaining were counted, being then the percentage of cells displaying said immunostaining.

[4] = tested on: fibroblasts (PHF) co-cultivated with tumor cell carcinoma of urinary bladder (5637); experiment: Marker expression (IHC) in PHF co-cultured with 5637 tumor cells; type: cell-based, human; conditions: co-culture with 5637; SP 1 μM + antagonist 1 μM; 48 h
Procedure: as §1

[5] = tested on: fibroblasts (PHF) co-cultured with tumor cells of human pancreatic adenocarcinoma (CAPAN-1); experiment: Marker expression (IHC) in PHF co-cultured with CAPAN-1 tumor cells; type: cell-based; conditions: co-culture with CAPAN-1; SP 1 μM + antagonist 1 μM; 48 h;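 note: cultures grown in fresh plasma from a healthy human donor, run in six replicates, value is percent of fibroblasts positive for each marker, compared with fibroblasts cultured alone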
Procedure: All cultures were maintained 48 hours, following which the same cells were included in paraffin blocks for subsequent analysis of the expression of different markers by immunohistochemistry (see Example 1). The primary antibodies used to perform immunohistochemical assays and their concentration are detailed in Example 2. All experiments were carried out sixfold. Analyzed markers in fibroblast cells (stromal cells) were: TGF-α, TGF-β1, TGF-β2, TGF-β3, SPARC, MMP-3, MMP-7, MMP-9, MMP-11, MMP-13 and MMP-14.

[6] = tested on: human primary macrophages (PHM); experiment: Marker expression (immunohistochemistry) in human primary macrophages with SP alone or with NK1 antagonists; type: cell-based; conditions: SP 1 μM + antagonist 1 μM; 48 h
Procedure: In this sense the next step was to analyze the effect exerted by the treatment with non-peptide NK1 antagonists in human primary macrophages (PHM) obtained and purified from pleural effusion samples obtained from men with chronic age range between 45 and 55 years. Briefly, the pleural fluid from chronic (rich in macrophages) was centrifuged.
After 48 hours of culture, cells were harvested and cellular paraffin blocks were constructed for immunohistochemical analysis (see Example 1). To analyze the expression of markers EGF, MMP-9, VEGF and IL-8 antibodies were used as follows: EGF (rabbit monoclonal antibody, anti-EGF; 07-1432. Merck-Millipore), MMP-9 (polyclonal rabbit anti-MMP-9: SAB4501896, Sigma-Aldrich), VEGF (mouse monoclonal anti-VEGF, GF25-100UG, Merck-Millipore) and TNF-α (mouse monoclonal anti-TNF-α, number MAB 1021 catalogue, obtained from Merck-Millipore). All of these antibodies were used at a concentration of 1/1000. System for labelling with a secondary antibody specific for the primary antibodies obtained from rabbit or mouse was used, as was necessary in each case, both the Envision (Dako). All experiments were carried out sixfold.

[7] = tested on: fibroblasts (PHF) co-cultured with tumor cells, ovarian carcinoma (EFO-27); experiment: Marker expression (IHC) in PHF co-cultured with EFO-27 tumor cells; type: cell-based, human; conditions: co-culture with EFO-27; SP 1 μM + antagonist 1 μM; 48 h;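 note: values are the percentage of PHF fibroblasts positive for each marker, cultured in fresh plasma from a healthy human donor, each experiment run in six replicates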
Procedure: as §1

[8] = tested on: fibroblasts (PHF) co-cultured with human choriocarcinoma tumor cells (AC-1M32); experiment: Marker expression (IHC) in PHF co-cultured with AC-1M32 tumor cells; type: cell-based; conditions: co-culture with AC-1M32; SP 1 μM + antagonist 1 μM; 48 h;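 note: Read-out is the percentage of PHF fibroblasts positive for each marker, with cells grown in fresh healthy-donor blood plasma, six replicates, reference being fibroblasts cultured alone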
Procedure: as §1

[9] = co-culture with cells isolated from colon carcinoma
[10] = co-culture with cells isolated from glioma
[11] = co-culture with cells isolated from lung carcinoma
[12] = co-culture with cells isolated from melanoma
[13] = co-culture with cells isolated from pancreatic carcinoma

Cc1cc(F)ccc1[C@H]1CNCCN1C(=O)N(C)[C@H](C)c1cc(C(F)(F)F)cc(C(F)(F)F)c1 [Vestipitant]
0%: Percentage of mononuclear leukocytes cells which expressed NF-kB [1, 9] | Percentage of mononuclear leukocytes cells which expressed TGF-β [1, 9] | Percentage of polymorphonuclear leukocytes cells which expressed NF-kB [1, 9] | Percentage of polymorphonuclear leukocytes cells which expressed TGF-β [1, 9] | Percentage of mononuclear leukocytes cells expressing NF-kB [1, 10] | Percentage of mononuclear leukocytes cells expressing TGF-β [1, 10] | Percentage of polymorphonuclear leukocytes cells expressing NF-kB [1, 10] | Percentage of polymorphonuclear leukocytes cells expressing TGF-β [1, 10] | Percentage of mononuclear leukocytes cells which expressed NF-kB [1, 11] | Percentage of mononuclear leukocytes cells which expressed TGF-β [1, 11] | Percentage of polymorphonuclear leukocytes cells which expressed NF-kB [1, 11] | Percentage of polymorphonuclear leukocytes cells which expressed TGF-β [1, 11] | Percentage of mononuclear leukocytes cells which expressed NF-kB [1, 12] | Percentage of mononuclear leukocytes cells which expressed TGF-β [1, 12] | Percentage of polymorphonuclear leukocytes cells which expressed NF-kB [1, 12] | Percentage of polymorphonuclear leukocytes cells which expressed TGF-β [1, 12] | Percentage of mononuclear leukocytes cells which expressed NF-kB [1, 13] | Percentage of mononuclear leukocytes cells which expressed TGF-β [1, 13] | Percentage of polymorphonuclear leukocytes cells which expressed NF-kB [1, 13] | Percentage of polymorphonuclear leukocytes cells which expressed TGF-β [1, 13] | PHF cells expressing MMP-3 [2] | PHF cells expressing MMP-7 [2] | PHF cells expressing MMP-9 [2] | PHF cells expressing MMP-11 [2] | PHF cells expressing MMP-13 [2] | PHF cells expressing MMP-14 [2] | PHF cells expressing SPARC [2] | PHF cells expressing TGF-α [2] | PHF cells expressing TGF-β1 [2] | PHF cells expressing TGF-β2 [2] | PHF cells expressing TGF-β3 [2] | PHF cells expressing MMP-3 [3] | PHF cells expressing MMP-7 [3] | PHF cells expressing MMP-9 [3] | PHF cells expressing MMP-11 [3] | PHF cells expressing MMP-13 [3] | PHF cells expressing MMP-14 [3] | PHF cells expressing SPARC [3] | PHF cells expressing TGFα [3] | PHF cells expressing TGFβ 1 [3] | PHF cells expressing TGFβ 2 [3] | PHF cells expressing TGFβ 3 [3] | PHF cells expressing MMP-3 [4] | PHF cells expressing MMP-7 [4] | PHF cells expressing MMP-9 [4] | PHF cells expressing MMP-11 [4] | PHF cells expressing MMP-13 [4] | PHF cells expressing MMP-14 [4] | PHF cells expressing SPARC [4] | PHF cells expressing TGF-α [4] | PHF cells expressing TGF-β1 [4] | PHF cells expressing TGF-β2 [4] | PHF cells expressing TGF-β3 [4] | PHF cells expressing MMP-3 [5] | PHF cells expressing MMP-7 [5] | PHF cells expressing MMP-9 [5] | PHF cells expressing MMP-11 [5] | PHF cells expressing MMP-13 [5] | PHF cells expressing MMP-14 [5] | PHF cells expressing SPARC [5] | PHF cells expressing TGF-α [5] | PHF cells expressing TGF-β1 [5] | PHF cells expressing TGF-β2 [5] | PHF cells expressing TGF-β3 [5] | macrophages expressing EGF [6] | macrophages expressing MMP-9 [6] | macrophages expressing VEGF [6] | PHF cells expressing MMP-3 [7] | PHF cells expressing MMP-7 [7] | PHF cells expressing MMP-9 [7] | PHF cells expressing MMP-11 [7] | PHF cells expressing MMP-13 [7] | PHF cells expressing MMP-14 [7] | PHF cells expressing SPARC [7] | PHF cells expressing TGF-α [7] | PHF cells expressing TGF-β1 [7] | PHF cells expressing TGF-β2 [7] | PHF cells expressing TGF-β3 [7] | PHF cells expressing MMP-3 [8] | PHF cells expressing MMP-7 [8] | PHF cells expressing MMP-9 [8] | PHF cells expressing MMP-11 [8] | PHF cells expressing MMP-13 [8] | PHF cells expressing MMP-14 [8] | PHF cells expressing SPARC [8] | PHF cells expressing TGF-α [8] | PHF cells expressing TGF-β1 [8] | PHF cells expressing TGF-β2 [8] | PHF cells expressing TGF-β3 [8]
